Values quoted from earlier work, collected in patent US9399044B2, “Antimicrobial cationic polyamines” (International Business Machines Corporation, priority 2014, dated 2016).

test system: mouse; conditions: commercially available compounds, source NIH

First: CC[C@@H](CO)NCCN[C@@H](CC)CO [Ethambutol]
Second: CN(Cc1cnc2nc(N)nc(N)c2n1)c1ccc(C(=O)N[C@@H](CCC(=O)O)C(=O)O)cc1 [Methotrexate]
The “Mouse Intravenous LD50” value of the first is 3.7-fold higher: 240 mg/kg for the first, 65 mg/kg for the second.

First: NNC(=O)c1ccncc1 [Isoniazid]
Second: CN1CCCC1c1cccnc1 (centres unmarked) [Nicotine]
The “Mouse Intravenous LD50” value of the first is 500-fold higher: 149 mg/kg for the first, 0.3 mg/kg for the second.

For CO[C@H]1/C=C/O[C@@]2(C)Oc3c(C)c(O)c4c(O)c(c(/C=N/N5CCN(C)CC5)c(O)c4c3C2=O)NC(=O)/C(C)=C\C=C\[C@H](C)[C@H](O)[C@@H](C)[C@@H](O)[C@@H](C)[C@H](OC(C)=O)[C@@H]1C [Rifampin], the “Mouse Intravenous LD50” value is listed as 260 mg/kg.
